Laboratory results from US12077503B2, “Substituted cyclic amides and their use as herbicides” (FMC CORPORATION, priority 2015, dated 2024).

Columns and labels:
Type in all cases: in vivo
Kochia (Kochia scoparia) [1] = assay: Test A preemergence; conditions: Bassia scoparia, pre-emergence, 240 h, Preemergence
Outline: (§1)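 Seeds sprayed preemergence with a directed soil spray, or plants at 2 to 10 cm height and one- to two-leaf stage sprayed postemergence, with test chemicals in a non-phytotoxic solvent mixture containing surfactant, in loam soil–sand blend. Injury rated visually against untreated controls after about 10 d in greenhouse, 0 (no effect) to 100 (complete control).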

[2] = tested on: barnyardgrass (Echinochloa crus-galli); assay: Test A preemergence; conditions: Echinochloa crus-galli, pre-emergence, 240 h, Preemergence
Outline: as §1

[3] = tested on: giant foxtail (Setaria faberii); assay: Test A preemergence; conditions: Setaria faberi, pre-emergence, 240 h, Preemergence
Outline: as §1

[4] = tested on: pigweed (Amaranthus retroflexus); assay: Test A preemergence; conditions: Amaranthus retroflexus, pre-emergence, 240 h, Preemergence
[5] = tested on: ragweed (common ragweed, Ambrosia elatior); assay: Test A preemergence; conditions: Ambrosia artemisiifolia, pre-emergence, 240 h, Preemergence
Outline: as §1

[6] = tested on: ryegrass, Italian (Italian ryegrass, Lolium multiflorum); assay: Test A preemergence; conditions: Lolium multiflorum, pre-emergence, 240 h, Preemergence
Outline: as §1

[7] = tested on: Galium (catchweed bedstraw, Galium aparine); assay: Test A postemergence; conditions: Galium, post-emergence, 240 h, Postemergence, read-out: Plant response rating, Galium
Outline: as §1

Kochia (Kochia scoparia) [8] = assay: Test A postemergence; conditions: Bassia scoparia, post-emergence, 240 h, Postemergence, read-out: Plant response rating, Kochia
Outline: as §1

[9] = tested on: barnyardgrass (Echinochloa crus-galli); assay: Test A postemergence; conditions: Echinochloa crus-galli, post-emergence, 240 h, Postemergence, read-out: Plant response rating, Barnyardgrass
Outline: as §1

[10] = tested on: blackgrass (Alopecurus myosuroides); assay: Test A postemergence; conditions: Alopecurus myosuroides, post-emergence, 240 h, Postemergence, read-out: Plant response rating, Blackgrass
Outline: as §1

corn (Zea mays) = assay: Test A postemergence; conditions: Zea mays, post-emergence, 240 h, Postemergence
Outline: as §1

[11] = tested on: giant foxtail (Setaria faberii); assay: Test A postemergence; conditions: Setaria faberi, post-emergence, 240 h, Postemergence, read-out: Plant response rating, Foxtail, Giant
Outline: as §1

[12] = tested on: pigweed (Amaranthus retroflexus); assay: Test A postemergence; conditions: Amaranthus retroflexus, post-emergence, 240 h, Postemergence, read-out: Plant response rating, Pigweed
Outline: as §1

[13] = tested on: ragweed (common ragweed, Ambrosia elatior); assay: Test A postemergence; conditions: Ambrosia artemisiifolia, post-emergence, 240 h, Postemergence, read-out: Plant response rating, Ragweed
Outline: as §1

[14] = tested on: ryegrass, Italian (Italian ryegrass, Lolium multiflorum); assay: Test A postemergence; conditions: Lolium multiflorum, post-emergence, 240 h, Postemergence, read-out: Plant response rating, Ryegrass, Italian
Outline: as §1

[15] = tested on: wheat (Triticum aestivum); assay: Test A postemergence; conditions: Triticum aestivum, post-emergence, 240 h, Postemergence, read-out: Plant response rating, Wheat
Outline: as §1

[16] = tested on: barnyardgrass (Echinochloa crus-galli); assay: Test B flooded paddy test; conditions: Echinochloa crus-galli, 250 g ai/ha, Flood; 0 to 100 scale where 0 is no effect and 100 is complete control; read-out: Barnyardgrass plant response rating
Outline: (§2)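 Plants at 2-leaf stage flooded to 3 cm above soil, with compounds applied directly to paddy water and that depth maintained. Plants kept in greenhouse 13–15 d. Visual rating versus controls on a 0 (no effect) to 100 (complete control) scale.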

[17] = tested on: ducksalad (Heteranthera limosa); assay: Test B flooded paddy test; conditions: Heteranthera limosa, 250 g ai/ha, Flood; 0 to 100 scale where 0 is no effect and 100 is complete control; read-out: Ducksalad plant response rating
Outline: as §2

rice (Oryra sativa) = assay: Test B flooded paddy test; conditions: Oryza sativa, 250 g ai/ha, Flood; 0 to 100 scale where 0 is no effect and 100 is complete control; read-out: Rice plant response rating
Outline: as §2

[18] = tested on: sedge, umbrella (small-flower umbrella sedge, Cyperus difformis); assay: Test B flooded paddy test; conditions: Cyperus difformis, 250 g ai/ha, Flood; 0 to 100 scale where 0 is no effect and 100 is complete control; read-out: Sedge, Umbrella plant response rating
Outline: as §2

[19] = 125 g ai/ha, visual injury after approximately 10 d, 0 to 100 scale where 0 is no effect and 100 is complete control
[20] = 31 g ai/ha, visual injury after approx. 10 d, 0 to 100 scale, 0 no effect, 100 complete control

CSc1ccccc1NC(=O)[C@H]1C(=O)N(C2CC2)CC[C@@H]1c1ccc(F)cc1 [Compound 1005]
0%: pest or weed control at 31 g/ha (Kochia (Kochia scoparia) [1]; 31 g ai/ha, 0 to 100 scale where 0 is no effect and 100 is complete control, read-out: Kochia plant response rating) | pest or weed control at 125 g/ha (Kochia (Kochia scoparia) [1]; 125 g ai/ha, visual injury rating after approximately 10 d, read-out: Kochia plant response rating (0 to 100 scale, 0 is no effect, 100 is complete control)) | pest or weed control at 125 g/ha ([2]; 125 g ai/ha, visual injury rating after approximately 10 d, read-out: Barnyardgrass plant response rating (0 to 100 scale, 0 is no effect, 100 is complete control)) | pest or weed control at 31 g/ha ([2]; 31 g ai/ha, 0 to 100 scale (0 no effect, 100 complete control), read-out: Plant response rating, Barnyardgrass) | pest or weed control at 125 g/ha ([3]; 125 g ai/ha, visual injury rating after approximately 10 d, read-out: Foxtail, Giant plant response rating (0 to 100 scale, 0 is no effect, 100 is complete control)) | pest or weed control at 31 g/ha ([3]; 31 g ai/ha, 0 to 100 scale (0 no effect, 100 complete control), read-out: Plant response rating, Foxtail, Giant) | pest or weed control at 31 g/ha ([4]; 31 g ai/ha, 0 to 100 scale where 0 is no effect and 100 is complete control, read-out: Pigweed plant response rating) | pest or weed control at 125 g/ha ([4]; 125 g ai/ha, visual injury rating after approximately 10 d, read-out: Pigweed plant response rating (0 to 100 scale, 0 is no effect, 100 is complete control)) | pest or weed control at 31 g/ha ([5]; 31 g ai/ha, 0 to 100 scale where 0 is no effect and 100 is complete control, read-out: Ragweed plant response rating) | pest or weed control at 125 g/ha ([5]; 125 g ai/ha, visual injury rating after approximately 10 d, read-out: Ragweed plant response rating (0 to 100 scale, 0 is no effect, 100 is complete control)) | pest or weed control at 31 g/ha ([6]; 31 g ai/ha, 0 to 100 scale where 0 is no effect and 100 is complete control, read-out: Ryegrass, Italian plant response rating) | pest or weed control at 125 g/ha ([6]; 125 g ai/ha, visual injury rating after approximately 10 d, read-out: Ryegrass, Italian plant response rating (0 to 100 scale, 0 is no effect, 100 is complete control)) | pest or weed control at 125 g/ha [7, 19] | pest or weed control at 31 g/ha [7, 20] | pest or weed control at 125 g/ha (Kochia (Kochia scoparia) [8]; [19]) | pest or weed control at 31 g/ha (Kochia (Kochia scoparia) [8]; [20]) | pest or weed control at 125 g/ha [9, 19] | pest or weed control at 31 g/ha [9, 20] | pest or weed control at 125 g/ha [10, 19] | pest or weed control at 31 g/ha [10, 20] | Corn plant response rating (crop injury, 0 = no effect, 100 = complete kill) at 125 g/ha (corn (Zea mays); [19]) | Corn plant response rating (crop injury, 0 = no effect, 100 = complete kill) at 31 g/ha (corn (Zea mays); [20]) | pest or weed control at 125 g/ha [11, 19] | pest or weed control at 31 g/ha [11, 20] | pest or weed control at 125 g/ha [12, 19] | pest or weed control at 31 g/ha [12, 20] | pest or weed control at 125 g/ha [13, 19] | pest or weed control at 31 g/ha [13, 20] | pest or weed control at 125 g/ha [14, 19] | pest or weed control at 31 g/ha [14, 20] | plant injury at 125 g/ha [15, 19] | plant injury at 31 g/ha [15, 20] | pest or weed control at 250 g/ha [16] | pest or weed control at 250 g/ha [17] | pest or weed control at 250 g/ha (rice (Oryra sativa)) | pest or weed control at 250 g/ha [18]
